According to patent US20120289472A1, “MOLECULES CAPABLE OF INDUCING CELL DEATH BY TARGETING THE MITOCHONDRIA AND APPLICATIONS THEREOF” (priority 2009, published 2012):
Read-outs that look alike come from different tables or passages of the source. Where a SMILES comes first, the peptide text is derived from it. Where no end group is shown, it is not given here. The star is where a group is joined. Cbz = O=C(OCc1ccccc1)*; CH2F = FC*

Experiments:
[1] = system: MEF-DKO murine fibroblasts; assay: Apoptosis of wild-type MEF and Bax/Bak-deficient MEF-DKO fibroblasts (Annexin V-Cy3, flow cytometry); assay type: cell-based
Source text: The graph (FIG. 6A) corresponds to a time course of cell death (quantified by flow cytometry by means of the Annexin V-Cy3 test) of MEF wild-type murine fibro-blasts compared with MEF-DKO murine fibroblasts.

HT-1080 cells = assay: Cell death of HT-1080 cells expressing GFP fused to Bax membrane insertion fragments; assay type: cell-based, human; conditions: zVAD.fmk 100 μM
Protocol: The various constructs were transfected into human cells cultured in vitro (HT-1080 and SK-MEL-28), and then the subcellular localization and the cytotoxicity induced by the Bax membrane insertion fragments fused to GFP were determined.
FIG. 5A gives the death rate (apoptosis/necrosis) of HT-1080 cells expressing GFP alone or as a fusion with various membrane insertion fragments of the Bax death protein. The cells were treated (+) or not (−) with the general caspase inhibitor zVAD.fmk (100 μM). Cell death was quantified 24 h after transfection by counting the number of green cells (expressing GFP) under an epifluorescence microscope. The type of cell death (apoptosis and necrosis) was determined through the membrane permeability to propidium iodide (necrosis) and the nuclear morphology (condensed or fragmented nuclei) after staining with Hoechst 33342 (apoptosis). […] The results represent the mean values (with the standard deviations) of the three experiments.
In this experiment, the cell death was quantified using the Annexin-V-Cyanine 3 test by flow cytometry 24 h after transient transfection of the cells with the plasmids of interest.

HeLa cells [2] = assay: Cytotoxicity in HeLa cells by LDH release; assay type: cell-based
Protocol: (A) HeLa cells were incubated for 6 h in the presence of 10 μM of poropeptide FITC-R8-Bax or of control peptide R8-Bax [Scr] (“scramble” version of the poropeptide), and then observed under an epifluorescence microscope. […] Scale 10 μm. […] HeLa cells were treated with increasing concentrations (5, 10, 25 and 50 μM) of peptide […] or […]. The cytotoxicity was determined by measuring the cellular release of lactate dehydrogenase (LDH) after 3, 6 or 24 h of incubation (n=4). […] The results are given in means and standard deviations. […] (25 μM). The cytotoxicity was determined by measuring the cellular release of lactate dehydrogenase (LDH) after 3, 6 or 24 h of incubation in the presence of 100 μM of zVAD.fmk or of buffer alone (‘DMSO’). The results are given as means and standard deviations. (D) Death rate (apoptosis/necrosis) of HeLa cells treated with poropeptide R8-Bax. The type of cell death was determined 24 h after transfection by observation of cell permeability to propidium iodide (necrosis) or of nuclear morphology after DNA staining with Hoechst 33342 (apoptosis). The green cells (expressing GFP) were visualized by epifluorescence microscopy. Approximately 300 cells were counted per experiment. The results are a mean of three independent experiments (the standard deviation is also represented).

HeLa cells [3] = assay: Internalization of fluorescent peptides by HeLa cells (epifluorescence microscopy); assay type: cell-based
Protocol: The poropeptide of sequence SEQ ID No. 1, comprising a polyarginine N-terminal extension (R8) separated by a glycine residue, was used. A fluorescein isothiocyanate (FITC) group was added in the C-terminal position so as to allow its visualization by epifluorescence microscopy. The R8-Scr-FITC peptide is a “scramble” sequence of the sequence present in the R8-Bax [106-134]-FITC peptide, i.e. a control sequence in which the amino acids (their order in the sequence) have been mixed-up.
(A) HeLa cells were incubated for 6 h in the presence of 10 μM of poropeptide FITC-R8-Bax or of control peptide R8-Bax [Scr] (“scramble” version of the poropeptide), and then observed under an epifluorescence microscope. […] Scale 10 μm. […] The cytotoxicity was determined by measuring the cellular release of lactate dehydrogenase (LDH) after 3, 6 or 24 h of incubation (n=4). […] The cytotoxicity was determined by measuring the cellular release of lactate dehydrogenase (LDH) after 3, 6 or 24 h of incubation in the presence of 100 μM of zVAD.fmk or of buffer alone (‘DMSO’). […] The type of cell death was determined 24 h after transfection by observation of cell permeability to propidium iodide (necrosis) or of nuclear morphology after DNA staining with Hoechst 33342 (apoptosis). […] Approximately 300 cells were counted per experiment. […]

[4] = system: SK-MEL-28 human melanoma cells; assay: Cell viability after microinjection into SK-MEL-28 melanoma cells; assay type: cell-based; conditions: SK-MEL-28, 12 h after microinjection; for cell death / viability after microinjection: versus control
Protocol: Poropeptide-Bax was then mixed with a solution of dextran-fluorescein (so as to allow its visualization by epifluorescence microscopy), and then microinjected into SK-MEL-28 human melanoma cells. Cell viability was then monitored and quantified 12 hours after microinjection.
(A) Micrographs showing SK-MEL-28 human melanoma cells injected with Dextran-FITC fluorescent tracer alone (‘mock’) or mixed with poropeptide-Bax. The cells were photographed 12 h after microinjection. […] Magnification×800. (B) Cell viability after microinjection of poropeptide-Bax or of Bax-BH3, KLAK or R8 peptide. The cells microinjected were visualized by means of the Dextran-FITC tracer. […] The data shown are representative of 2 independent experiments giving the same results.

isolated mitochondria = assay: Cytochrome c release from isolated mitochondria (Western blotting of supernatant); assay type: biochemical; conditions: for incubation time at which cytochrome c is released: 10 μM
Protocol: The ex cellulo activity of poropeptide-Bax (106-134) was tested by determining its ability to promote the release of cytochrome c from the intermembrane space of isolated mitochondria. The results obtained are shown by FIG. 9 (A).
The peptide is incubated with the mitochondria for 5, 15, 30 or 60 min, and the mitochondrial release of cytochrome c into the supernatant (SN) is measured by Western blotting. The mitochondrial fractions (Mito) are calibrated using an antibody directed against the HSP70 or ATPase (subunit 6) mitochondrial proteins. With poropeptide-Bax (106-134), cytochrome c is released from the intermembrane space of the mitochondrion at 10 μM and in 5 min of incubation. No release is observed when an artificial antimicrobial peptide (KLAK) of sequence SEQ ID No. 2 KLAKLAKKLAKLAK is used.

[5] = system: mitochondria isolated from rat liver; assay: Swelling and depolarization of mitochondria isolated from rat liver; assay type: biochemical
Protocol: Poropeptide-Bax (106-134) induces swelling of the mitochondria (DD50=1.68±0.39 μM) and a drop in their transmembrane potential (SD50=3.98±0.57 μM). These two parameters were measured using mitochondria isolated from rat liver, incubated in the presence of various concentrations of poropeptide-Bax (106-134) (NT=not treated).

Zebrafish eggs = assay: Microinjection into zebrafish eggs (mortality, malformations); assay type: in vivo, Danio rerio
Source text: Poropeptide-Bax was microinjected in vivo. The zebrafish (Danio rerio) model was used because (i) the apoptotic machinery is conserved between human cells and fish cells; (ii) the egg corresponds to an integrated cell system compared with isolated mitochondria; (iii) zebrafish eggs can be easily injected routinely.
(A) Zebrafish eggs were microinjected at the 1-2 cell(s) stage with increasing concentrations of poro-peptide-Bax, of Bax-BH3 peptide or with ultrapure water ('mock'). A concentration of 100 μM inside the microinjection capillary corresponds to approximately […] molecules of peptide per egg. […] The data shown are representative of 2 independent experiments giving the same results. (B) Embryonic morphology 24 h after microinjection (100 μM of peptide).

Compound: CN[C@@H]1C[C@H]2O[C@@](C)([C@@H]1OC)n1c3ccccc3c3c4c(c5c6ccccc6n2c5c31)C(=O)NC4 [staurosporine]
- apoptosis induced in MEF-DKO cells [1]: resistant

Compound: COC(=O)C[C@H](NC(=O)[C@H](C)NC(=O)[C@@H](NC(=O)OCc1ccccc1)C(C)C)C(=O)CF [zVAD.fmk, reference compound] (Cbz-Val-Ala-Asp(OMe)-CH2F)
- effect of caspase inhibitor on apoptosis caused by Bax membrane insertion fragments (HT-1080 cells): blocking of the apoptosis
- effect of caspase inhibitor on cell death induced by poropeptide R8-Bax [106-134] (LDH release) (HeLa cells [2]; HeLa, zVAD.fmk 100 μM, poropeptide 25 μM, 3, 6 or 24 h): reduces cell death

Compound: R8-Bax [106-134]: poropeptide of SEQ ID No. 1 with polyarginine N-terminal extension (R8) separated by a glycine residue, FITC group added (RRRRRRRRGNWGRVVALFYFASKLVLKALCTKVPELIR; also: FITC group added, position not given here; UniProt Q07812 106-134, looked up, fragment)
- time to internalization (HeLa cells [3]; HeLa cells in culture in vitro): in less than one hour
- cytoplasmic labeling of cells (HeLa cells [3]; HeLa, 10 μM, 6 h): strong cytoplasmic labeling
- cytotoxicity by cellular release of lactate dehydrogenase (LDH) (HeLa cells [2]; HeLa, 5, 10, 25 and 50 μM, 3, 6 or 24 h): loss of cell viability which is dose-dependent and incubation time-dependent

Compound: KLAKLAKKLAKLAK [artificial antimicrobial peptide, reference compound]
- cell death / viability after microinjection [4]: no significant effect
- cytochrome c release from intermembrane space (isolated mitochondria; incubation 5-60 min): No release

Compound: RRRRRRRR [R8, control peptide, a polyarginine intracellular transduction motif, reference compound]
- cell death / viability after microinjection [4]: viability rates comparable to the control

Compound: H-NWGRVVALFYFASKLVLKALSTKVPELIR-OH [poropeptide-Bax (106-134)]
- cell morphology after microinjection [4]: characteristic morphological manifestations of apoptosis
- cell death / viability after microinjection [4]: substantial cell death
- EC50 ([5]; read-out: drop in transmembrane potential (SD50)): 3980 ± 570 nM
- EC50 ([5]; read-out: swelling of the mitochondria (DD50)): 1680 ± 390 nM
- minimum concentration for which cytochrome c release is observed (isolated mitochondria): 10 µM
- incubation time at which cytochrome c is released (isolated mitochondria): 5 min
- incubation time at which cytochrome c is released (isolated mitochondria; listed as Poropeptide-Bax (106-134)): ≤ 5 min
- embryonic morphology (Zebrafish eggs; 24 h after microinjection, 100 μM of peptide, compared with BH3 peptide group): Severe malformations
- cytotoxic effects after introduction into zebrafish eggs (Zebrafish eggs; increasing concentrations, microinjection at 1-2 cell stage): dose-dependent cytotoxic effects
